The test system of this assay is human umbilical vein endothelial cells (HUVEC). In words: HUVEC proliferation assay. To be noted: for inhibition at 0.15 µM / inhibition at 0.001 µM / inhibition at 0.01 µM / inhibition at 0.05 µM: Homo sapiens, HUVEC; for inhibition at 0.15 µM / % inhibition @ 150 nM: Table I screening results, 150 nM; for inhibition at 0.001 µM: 1 nM; for inhibition at 0.01 µM: 10 nM; for inhibition at 0.05 µM: 50 nM. It counts as cell-based. The procedure, abridged:
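Readout was MTT dye reduction (A595) after 72 h of stimulation with VEGF at 6 ng/ml final. Compound, in 0.1% DMSO final, was added 1 h before VEGF to HUVEC starved 24 h in 1% FBS. % inhibition was scaled between VEGF-alone and unstimulated wells; IC50 was fitted from triplicate dose curves.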

Setting [1] is: crude combinatorial amide library.
The mark [2] stands for this setting: table following Table II (untitled), crude combinatorial library.
The mark [3] stands for this setting: table following Table II (untitled), crude combinatorial library, read-out: % inhibition @ 10 nM.
Where [4] appears, read: Inhibition of HUVEC Proliferation, crude combinatorial urea library, read-out: % inhibition @ 50 nM.
Setting [5] is: Table II screening results, crude combinatorial amide library.
[6] abbreviates: Table II screening results, crude combinatorial amide library, read-out: % inhibition @ 10 nM.
[7] abbreviates: crude combinatorial urea library, read-out: Inhibition of HUVEC Proliferation % inhibition @ 10 nM.
The mark [8] stands for this setting: crude combinatorial urea library, read-out: Inhibition of HUVEC Proliferation % inhibition @ 50 nM.
Setting [9] is: Inhibition of HUVEC Proliferation, crude combinatorial urea library, read-out: Inhibition @ 50 nM.

Molecules are shown by their SMILES. Like-named read-outs stand apart in the source and are kept apart here.

For `COc1cc(Nc2nc(N)c(-c3nc(-c4cccc(NC(=O)/C=C/c5c[nH]c6ccccc56)c4)cs3)s2)cc(OC)c1OC`, the inhibition at 0.15 µM under setting [1] was 5%.

For `COc1cc(Nc2nc(N)c(-c3nc(-c4cc(NC(=O)CC5CCC6CCC5C6)ccc4C)no3)s2)cc(OC)c1OC` (stereo not shown), the inhibition at 0.001 µM under setting [2] was -7%. Under setting [3], the inhibition at 0.01 µM amounted to 47%.

For the compound `COc1cccc(C(=O)Nc2cc(-c3csc(-c4sc(NC(=O)NCC(C)N(C)C)nc4N)n3)c(F)cc2F)c1` (stereo not shown), the inhibition at 0.05 µM under setting [4] was 22%.

Consider `CC/C=C(\C)C(=O)Nc1ccc(C)c(-c2noc(-c3sc(Nc4cc(OC)c(OC)c(OC)c4)nc3N)n2)c1`, for which the inhibition at 0.001 µM under setting [2] was 32%. For the same compound, under setting [3], the inhibition at 0.01 µM came out at 74%.

Turning to `CNC(=O)Nc1nc(N)c(-c2nc(-c3cccc(NC(=O)Cc4sc(S)nc4C)c3)cs2)s1`, under setting [5], the inhibition at 0.001 µM came to 18%. The inhibition at 0.01 µM under setting [6] is -25%.

As to `CNC(=O)Nc1nc(N)c(-c2nc(-c3cccc(NC(=O)C4CC5C=CC4CC5)c3)cs2)s1` (stereo not shown), the inhibition at 0.001 µM under setting [5] was found to be 54%. Moreover, the inhibition at 0.01 µM under setting [6] was found to be 45%.

On to `COc1cccc(C(=O)Nc2cccc(-c3csc(-c4sc(NC(=O)NCS(=O)(=O)O)nc4N)n3)c2)c1`, for which the inhibition at 0.01 µM under setting [7] was -8%. For the same compound, under setting [8], the inhibition at 0.05 µM came out at 8%.

With `COc1cccc(C(=O)Nc2cc(-c3noc(-c4sc(NC(=O)NC(C)CO)nc4N)n3)c(F)cc2F)c1` (stereo not shown), the inhibition at 0.05 µM under setting [9] was 77%.

In the case of `COc1cc(Nc2nc(N)c(-c3nc(-c4cccc(NC(=O)c5cccc(C#N)c5)c4)cs3)s2)cc(OC)c1OC`, the inhibition at 0.15 µM under setting [1] was found to be 56%.

For the compound `COc1cccc(C(=O)Nc2cccc(-c3csc(-c4sc(NC(=O)NCC(=N)N)nc4N)n3)c2)c1`, the inhibition at 0.01 µM under setting [7] was found to be 27%. The inhibition at 0.05 µM under setting [8] came out at 46%.

As for `COc1cccc(C(=O)Nc2cc(-c3noc(-c4sc(NC(=O)NCCCN5CCCC5=O)nc4N)n3)c(F)cc2F)c1` [drawing 763], the inhibition at 0.05 µM under setting [9] turned out to be 106%.

Consider `COc1cccc(C(=O)Nc2cc(-c3noc(-c4sc(NC(=O)NC(=O)NCC5(O)CCCCC5)nc4N)n3)c(F)cc2F)c1`, for which the inhibition at 0.05 µM under setting [9] came to 99%.

For the compound `COc1cccc(C(=O)Nc2cccc(-c3csc(-c4sc(NC(=O)NCCc5ccc(S(N)(=O)=O)cc5)nc4N)n3)c2)c1`, the inhibition at 0.01 µM under setting [7] came to 34%. The inhibition at 0.05 µM under setting [8] was determined as 49%.

Take `COc1cccc(C(=O)Nc2cc(-c3csc(-c4sc(NC(=O)NCCc5ccc(S(N)(=O)=O)cc5)nc4N)n3)c(F)cc2F)c1`: the inhibition at 0.05 µM under setting [4] turned out to be 25%.

In the case of `COc1cccc(C(=O)Nc2cc(-c3csc(-c4sc(NC(=O)NCCC(C)C)nc4N)n3)c(F)cc2F)c1`, the inhibition at 0.05 µM under setting [4] is 55%.

On to `COc1cc(Nc2nc(N)c(-c3nc(-c4cc(NC(=O)C(O)c5ccccc5)ccc4C)no3)s2)cc(OC)c1OC` (stereo not shown), for which the inhibition at 0.001 µM under setting [2] was -1%. Moreover, the inhibition at 0.01 µM under setting [3] was 40%.

With `COc1cccc(C(=O)Nc2cc(-c3csc(-c4sc(NC(=O)NCc5ccc(N(C)C)cc5)nc4N)n3)c(F)cc2F)c1`, the inhibition at 0.05 µM under setting [4] came to 39%.

Take `CNC(=O)Nc1nc(N)c(-c2nc(-c3cccc(NC(=O)Cc4cccc(OC)c4)c3)cs2)s1`: the inhibition at 0.001 µM under setting [5] came out at 25%. Under setting [6], the inhibition at 0.01 µM is -31%.

Take `COc1cccc(C(=O)Nc2cc(-c3csc(-c4sc(NC(=O)NC5CCS(=O)(=O)C5)nc4N)n3)c(F)cc2F)c1` (stereo not shown): under setting [4], the inhibition at 0.05 µM stood at 100%.

On to `COc1cc(Nc2nc(N)c(-c3nc(-c4cc(NC(=O)/C=C/C5CC[C@H]6C=C[C@@H]5C6)ccc4C)no3)s2)cc(OC)c1OC` (stereo partly shown), for which the inhibition at 0.001 µM under setting [2] is -12%. Besides, under setting [3], the inhibition at 0.01 µM came out at 25%.

Turning to `COc1cc(Nc2nc(N)c(-c3nc(-c4cc(NC(=O)C5=C[C@@H](O)[C@@H](O)[C@H](O)C5)ccc4C)no3)s2)cc(OC)c1OC`, the inhibition at 0.001 µM under setting [2] amounted to 4%. Also, the inhibition at 0.01 µM under setting [3] came out at 6%.

For the compound `COc1cc(Nc2nc(N)c(-c3nc(-c4cc(NC(=O)c5ccc(=O)oc5)ccc4C)no3)s2)cc(OC)c1OC`, under setting [2], the inhibition at 0.001 µM was 30%. Moreover, under setting [3], the inhibition at 0.01 µM was determined as 51%.

For `CCN(CC)CCNC(=O)Nc1nc(N)c(-c2nc(-c3cc(NC(=O)c4cccc(OC)c4)c(F)cc3F)no2)s1`, under setting [9], the inhibition at 0.05 µM was 82%.

As to `COc1cccc(C(=O)Nc2cccc(-c3csc(-c4sc(NC(=O)NCCN5CCNCC5)nc4N)n3)c2)c1`, under setting [7], the inhibition at 0.01 µM stood at 4%. Also, the inhibition at 0.05 µM under setting [8] worked out at 39%.

On to `COc1cc(Nc2nc(N)c(-c3nc(-c4cc(NC(=O)Cc5cc(F)cc(F)c5)ccc4C)no3)s2)cc(OC)c1OC`, for which, under setting [2], the inhibition at 0.001 µM worked out at 4%. Moreover, the inhibition at 0.01 µM under setting [3] was determined as 67%.

As for `COc1ccc(C(=O)Nc2cccc(-c3csc(-c4sc(Nc5cc(OC)c(OC)c(OC)c5)nc4N)n3)c2)cc1Cl`, under setting [1], the “% inhibition @ 150 nM” value stood at 0%.

Consider `COc1cc(Nc2nc(N)c(-c3nc(-c4cccc(NC(=O)c5ccc6[nH]nnc6c5)c4)cs3)s2)cc(OC)c1OC`, for which the inhibition at 0.15 µM under setting [1] is -8%.

As to `COc1cccc(C(=O)Nc2cccc(-c3csc(-c4sc(NC(=O)N[C@@H](CC(N)=O)C(N)=O)nc4N)n3)c2)c1`, the inhibition at 0.01 µM under setting [7] was 19%. Besides, under setting [8], the inhibition at 0.05 µM worked out at 23%.

In the case of `COc1ccccc1/C=C/C(=O)Nc1ccc(C)c(-c2noc(-c3sc(Nc4cc(OC)c(OC)c(OC)c4)nc3N)n2)c1`, the inhibition at 0.001 µM under setting [2] came to 13%. Further, under setting [3], the inhibition at 0.01 µM was 31%.

With `COc1cc(Nc2nc(N)c(-c3nc(-c4cccc(NC(=O)Cc5ccc6ccccc6c5)c4)cs3)s2)cc(OC)c1OC`, the inhibition at 0.15 µM under setting [1] was -7%.

Turning to `COc1cccc(C(=O)Nc2cccc(-c3csc(-c4sc(NC(=O)NCCCCN(C)C)nc4N)n3)c2)c1`, the inhibition at 0.01 µM under setting [7] was -2%. Under setting [8], the inhibition at 0.05 µM turned out to be 71%.

As for `COc1cccc(C(=O)Nc2cccc(-c3csc(-c4sc(NC(=O)NCCC5CCCN5C)nc4N)n3)c2)c1` (stereo not shown), under setting [7], the inhibition at 0.01 µM came out at 39%. The inhibition at 0.05 µM under setting [8] was determined as 0%.

Turning to `COc1cccc(C(=O)Nc2cc(-c3csc(-c4sc(NC(=O)NCc5cccnc5)nc4N)n3)c(F)cc2F)c1`, the inhibition at 0.05 µM under setting [4] came out at 102%.

Turning to `COc1cccc(C(=O)Nc2cc(-c3csc(-c4sc(NC(=O)NCCN5CCNC5=O)nc4N)n3)c(F)cc2F)c1`, the inhibition at 0.05 µM under setting [4] worked out at 78%.

Take `COc1cc(Nc2nc(N)c(-c3nc(-c4cccc(NC(=O)CCc5ccccc5)c4)cs3)s2)cc(OC)c1OC` [drawing 884]: the inhibition at 0.15 µM under setting [1] is 4%.

Turning to `COc1cc(Nc2nc(N)c(-c3nc(-c4cccc(NC(=O)c5cnc(Cl)c(Cl)c5)c4)cs3)s2)cc(OC)c1OC`, the inhibition at 0.15 µM under setting [1] came out at 20%.

`COc1cccc(C(=O)Nc2cccc(-c3csc(-c4sc(NC(=O)NC5CCS(=O)(=O)C5)nc4N)n3)c2)c1` (stereo not shown): the inhibition at 0.01 µM under setting [7] came to 9%. The inhibition at 0.05 µM under setting [8] amounted to 86%.

Consider `CNC(=O)Nc1nc(N)c(-c2nc(-c3cccc(NC(=O)C4=CCCN(C)C4)c3)cs2)s1`, for which the inhibition at 0.001 µM under setting [5] was 2%. The inhibition at 0.01 µM under setting [6] was found to be 43%.

As for `CCN(CC)CCCNC(=O)Nc1nc(N)c(-c2nc(-c3cc(NC(=O)c4cccc(OC)c4)c(F)cc3F)cs2)s1`, under setting [4], the inhibition at 0.05 µM is 89%.

`COc1cc(Nc2nc(N)c(-c3nc(-c4cccc(NC(=O)Cc5cccc(Cl)c5)c4)cs3)s2)cc(OC)c1OC`: under setting [1], the inhibition at 0.15 µM came to 30%.

In the case of `COc1cc(Nc2nc(N)c(-c3nc(-c4cccc(NC(=O)c5ccccc5)c4)cs3)s2)cc(OC)c1OC` [drawing 845], under setting [1], the inhibition at 0.15 µM was 33%.

Take `COc1cccc(C(=O)Nc2cccc(-c3csc(-c4sc(NC(=O)NCc5ccc(S(N)(=O)=O)cc5)nc4N)n3)c2)c1`: under setting [7], the inhibition at 0.01 µM was 26%. The inhibition at 0.05 µM under setting [8] turned out to be 36%.

`CNC(=O)Nc1nc(N)c(-c2nc(-c3cccc(NC(=O)/C=C(\C)c4ccccc4C)c3)cs2)s1`: the inhibition at 0.001 µM under setting [5] was -2%. Under setting [6], the inhibition at 0.01 µM was determined as 20%.

With `COc1cccc(C(=O)Nc2cc(-c3noc(-c4sc(NC(=O)NCCCN(CCO)CCO)nc4N)n3)c(F)cc2F)c1`, the inhibition at 0.05 µM under setting [9] came out at 84%.

Consider `CCC(CO)NC(=O)Nc1nc(N)c(-c2nc(-c3cc(NC(=O)c4cccc(OC)c4)c(F)cc3F)no2)s1` (stereo not shown), for which the inhibition at 0.05 µM under setting [9] turned out to be 81%.

With `CCN(CCNC(=O)Nc1nc(N)c(-c2nc(-c3cccc(NC(=O)c4cccc(OC)c4)c3)cs2)s1)c1cccc(C)c1`, under setting [7], the inhibition at 0.01 µM was -10%. For the same compound, under setting [8], the inhibition at 0.05 µM was determined as 125%.

Consider `CCCN(CCC)CC(=O)Nc1cccc(-c2csc(-c3sc(NC(=O)NC)nc3N)n2)c1`, for which, under setting [5], the inhibition at 0.001 µM came to 10%. For the same compound, the inhibition at 0.01 µM under setting [6] turned out to be 0%.

Consider `COc1cc(Nc2nc(N)c(-c3nc(-c4cc(NC(=O)c5cccc6cc[nH]c56)ccc4C)no3)s2)cc(OC)c1OC`, for which the inhibition at 0.001 µM under setting [2] is 34%. For the same compound, under setting [3], the inhibition at 0.01 µM came out at 41%.

In the case of `COc1cccc(C(=O)Nc2cccc(-c3csc(-c4sc(NC(=O)NCC(=O)NO)nc4N)n3)c2)c1`, under setting [7], the inhibition at 0.01 µM was -1%. The inhibition at 0.05 µM under setting [8] turned out to be 37%.

On to `COc1cccc(C(=O)Nc2cccc(-c3csc(-c4sc(NC(=O)NCCc5cncn5C)nc4N)n3)c2)c1`, for which the inhibition at 0.01 µM under setting [7] was -15%. In addition, the inhibition at 0.05 µM under setting [8] was 15%.

As for `COc1ccccc1CCC(=O)Nc1cccc(-c2csc(-c3sc(Nc4cc(OC)c(OC)c(OC)c4)nc3N)n2)c1`, the “% inhibition @ 150 nM” value under setting [1] was 0%.

As to `COCCNC(=O)Nc1nc(N)c(-c2nc(-c3cc(NC(=O)c4cccc(OC)c4)c(F)cc3F)no2)s1`, under setting [9], the inhibition at 0.05 µM was 53%.
